Data as given in article PMC6009887, “New quinoxalinone inhibitors targeting secreted phospholipase A2 and α-glucosidase” (Journal of Enzyme Inhibition and Medicinal Chemistry, 2017).
Like-named read-outs stand apart in the source and are kept apart here.

Columns and labels:
hG-XIIA sPLA2 = target: T1, hG-XIIA sPLA2 (Homo sapiens, UniProt Q9BZM1); experiment: Inhibition of sPLA2 activity, colorimetric lecithin/red phenol assay, group XII; type: biochemical
T1 sequence (Q9BZM1 23-189): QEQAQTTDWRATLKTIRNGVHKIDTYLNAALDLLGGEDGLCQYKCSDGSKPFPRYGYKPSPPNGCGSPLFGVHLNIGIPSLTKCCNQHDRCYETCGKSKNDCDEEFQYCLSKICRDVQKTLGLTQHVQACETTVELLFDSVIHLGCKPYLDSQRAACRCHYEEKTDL
Procedure: (§3) Briefly, the substrate consisted of 3.5 mM lecithin in a mixture of 3 mM NaTDC “Sodium taurodeoxycholate”, 100 mM NaCl, 10 mM CaCl2, and 0.055 mM red phenol as colorimetric indicator in 100 ml H2O. The pH of the reaction mixture was adjusted to 7.6. The human group IB (pG-IB), IIA (hG-IIA), V (hG-V), X (hG-X), and XII (hG-XII) sPLA2 were solubilised in 10% acetonitrile at a concentration of 0.02 μg/μL. A volume of 10 μL of these PLA2 solutions was incubated with 10 μL of each compound for 20 min at room temperature. […] The inhibition percentage was calculated by comparison with a control experiment (absence of compound).

hG-IIA sPLA2 = target: T2, hG-IIA sPLA2 (Homo sapiens, UniProt P14555); experiment: Inhibition of sPLA2 activity, colorimetric lecithin/red phenol assay, group IIA; type: biochemical
T2 sequence (P14555 21-144): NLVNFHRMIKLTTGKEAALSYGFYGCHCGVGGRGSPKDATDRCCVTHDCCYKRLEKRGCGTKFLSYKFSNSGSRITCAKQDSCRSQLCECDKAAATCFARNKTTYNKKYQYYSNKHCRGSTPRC
Procedure: as §3

hG-X sPLA2 = target: T3, hG-X sPLA2 (Homo sapiens, UniProt O15496); experiment: Inhibition of sPLA2 activity, colorimetric lecithin/red phenol assay, group X; type: biochemical
T3 sequence (O15496 43-165): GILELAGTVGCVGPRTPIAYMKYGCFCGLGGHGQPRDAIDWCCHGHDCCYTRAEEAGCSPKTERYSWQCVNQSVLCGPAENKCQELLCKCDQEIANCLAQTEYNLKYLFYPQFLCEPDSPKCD
Procedure: (§1) The test of inhibitory activity of sPLA2 was performed as described by Lobo de Araujo and Radvanyi[41]. Briefly, the substrate consisted of 3.5 mM lecithin in a mixture of 3 mM NaTDC “Sodium taurodeoxycholate”, 100 mM NaCl, 10 mM CaCl2, and 0.055 mM red phenol as colorimetric indicator in 100 ml H2O. The pH of the reaction mixture was adjusted to 7.6. The human group IB (pG-IB), IIA (hG-IIA), V (hG-V), X (hG-X), and XII (hG-XII) sPLA2 were solubilised in 10% acetonitrile at a concentration of 0.02 μg/μL. A volume of 10 μL of these PLA2 solutions was incubated with 10 μL of each compound for 20 min at room temperature. Then, 1 ml of the PLA2 substrate was added, and the kinetic of hydrolysis was followed during 5 min by reading the optical density at 558 nm. The inhibition percentage was calculated by comparison with a control experiment (absence of compound).
(§2) In order to evaluate the potential anti-inflammatory activity of the 12 studied compounds, we tested their inhibitory effects using several human sPLA2 isozymes, […], hG-V, hG-X, and hG-XII, involved in the inflammatory process and porcine pG-IB sPLA2 which hydrolyses dietary phospholipids.

pG-IB sPLA2 = pG-IB sPLA2 (Sus scrofa, UniProt P00592); experiment: Inhibition of sPLA2 activity, colorimetric lecithin/red phenol assay, group IB; type: biochemical, porcine
Procedure: as §3

hG-V sPLA2 = target: T4, hG-V sPLA2 (Homo sapiens, UniProt P39877); experiment: Inhibition of sPLA2 activity, colorimetric lecithin/red phenol assay, group V; type: biochemical
T4 sequence (P39877 21-138): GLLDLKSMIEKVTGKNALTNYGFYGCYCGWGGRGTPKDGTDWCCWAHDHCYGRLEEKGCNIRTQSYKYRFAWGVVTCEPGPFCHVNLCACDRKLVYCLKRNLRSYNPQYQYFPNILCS
Procedure: as §1, §2

[1] = ± standard deviation, duplicate, read-out: IC50 (µM) Against Phospholipase hG-XIIA
[2] = ± standard deviation, duplicate, read-out: IC50 (µM) Against Phospholipase hG-IIA
[3] = ± standard deviation, duplicate, read-out: IC50 (µM) Against Phospholipase hG-X
[4] = ± standard deviation, duplicate, read-out: IC50 (µM) Against Phospholipase pG-IB
[5] = ± standard deviation, duplicate, read-out: IC50 (µM) Against Phospholipase hG-V

Chain of pG-IB sPLA2 (P00592 23-146): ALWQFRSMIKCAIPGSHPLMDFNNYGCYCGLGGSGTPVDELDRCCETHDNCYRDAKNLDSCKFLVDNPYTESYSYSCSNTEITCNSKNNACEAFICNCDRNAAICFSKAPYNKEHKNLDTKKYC

Structure (SMILES)	IC50 (hG-XIIA sPLA2; [1]) [µM]	IC50 (hG-IIA sPLA2; [2]) [µM]	IC50 (hG-X sPLA2; [3]) [µM]	IC50 (pG-IB sPLA2; [4]) [µM]	IC50 (hG-V sPLA2; [5]) [µM]	melting point [°C]	IC50 (hG-XIIA sPLA2) [µM]	IC50 (hG-IIA sPLA2) [µM]	IC50 (hG-X sPLA2) [µM]	IC50 (pG-IB sPLA2) [µM]	IC50 (hG-V sPLA2) [µM]
O=c1[nH]c2ccccc2n2c(-c3ccc(Cl)c(Cl)c3)nnc12 [Compound 4d, 1-(3,4-Dichlorophenyl)-[1,2,4]triazolo[4,3-a]quinoxalin-4(5H)-one]	1.41 ± 0.07	1.81 ± 0.04	2.71 ± 0.07	14.5 ± 0.87	3.04 ± 0.57	–	–	–	–	–	–
CC1(C)CC[C@]2(C(=O)O)CC[C@]3(C)C(=CC[C@@H]4[C@@]5(C)CC[C@H](O)C(C)(C)[C@@H]5CC[C@]43C)[C@@H]2C1 [Oleanolic acid, reference compound]	–	–	–	–	16.4 ± 1.53	–	–	–	–	–	–
O=c1[nH]c2ccccc2nc1N/N=C/c1ccc(O)cc1O [Compound 3c, (E)-3-(2-(2,4-dihydroxybenzylidene)hydrazinyl)quinoxalin-2(1H)-one]	6.75 ± 0.17	3.71 ± 0.27	12.5 ± 0.87	13.3 ± 0.5	9.45 ± 0.13	292 to 294	–	–	–	–	–
COc1cccc(/C=N/Nc2nc3ccccc3[nH]c2=O)c1 [Compound 3f, (E)-3-(2-(3-methoxybenzylidene)hydrazinyl)quinoxalin-2(1H)-one]	0.84 ± 0.07	1.9 ± 0.3	0.33 ± 0.06	12.4 ± 0.03	1.22 ± 0.3	–	–	–	–	–	–
O=c1[nH]c2ccccc2n2c(-c3cccs3)nnc12 [Compound 4e, 1-(Thiophen-2-yl)-[1,2,4]triazolo[4,3-a]quinoxalin-4(5H)-one]	18.6 ± 1.33	16.8 ± 0.41	17.9 ± 0.94	16.8 ± 0.93	18.6 ± 0.56	–	–	–	–	–	–
COc1cc(-c2nnc3c(=O)[nH]c4ccccc4n23)cc(OC)c1OC [Compound 4a, 1-(3,4,5-Trimethoxyphenyl)-[1,2,4]triazolo[4,3-a]quinoxalin-4(5H)-one]	13.2 ± 0.21	13.05 ± 0.05	12.2 ± 0.47	14.2 ± 1.22	11.3 ± 0.08	227 to 229	–	–	–	–	–
O=c1[nH]c2ccccc2nc1N/N=C/c1cccs1 [Compound 3e, (E)-3-(2-(thiophen-2-ylmethylene)hydrazinyl)quinoxalin-2(1H)-one]	3.81 ± 0.99	2.81 ± 0.33	4.43 ± 1.03	10.7 ± 0.92	6.28 ± 0.4	–	–	–	–	–	–
O=c1[nH]c2ccccc2n2c(-c3ccc([N+](=O)[O-])cc3[N+](=O)[O-])nnc12 [Compound 4b, 1-(2,4-Dinitrophenyl)-[1,2,4]triazolo[4,3-a]quinoxalin-4(5H)-one]	–	–	–	–	–	> 300	2.58 ± 0.43	0.76 ± 0.01	1.05 ± 0.08	13.6 ± 0.7	1.53 ± 0.14
O=c1[nH]c2ccccc2nc1N/N=C/c1ccc([N+](=O)[O-])cc1[N+](=O)[O-] [Compound 3b, (E)-3-(2-(2,4-dinitrobenzylidene)hydrazinyl)quinoxalin-2(1H)-one]	–	–	–	–	–	283 to 285	2.28 ± 0.08	5.36 ± 0.73	2.54 ± 0.42	10.7 ± 0.67	1.12 ± 0.31
COc1cc(/C=N/Nc2nc3ccccc3[nH]c2=O)cc(OC)c1OC [Compound 3a, (E)-3-(2-(3,4,5-trimethoxybenzylidene)hydrazinyl)quinoxalin-2(1H)-one]	3.04 ± 0.67	2.48 ± 0.28	1.26 ± 0.05	9.31 ± 0.36	1.46 ± 0.47	258 to 260	–	–	–	–	–
COc1cccc(-c2nnc3c(=O)[nH]c4ccccc4n23)c1 [Compound 4f, 1-(3-Methoxyphenyl)-[1,2,4]triazolo[4,3-a]quinoxalin-4(5H)-one]	15.8 ± 1.29	17.1 ± 0.41	14.4 ± 0.52	16 ± 1.71	15.8 ± 0.85	286 to 288	–	–	–	–	–
O=c1[nH]c2ccccc2n2c(-c3ccc(O)cc3O)nnc12 [Compound 4c, 1-(2,4-Dihydroxyphenyl)-[1,2,4]triazolo[4,3-a]quinoxalin-4(5H)-one]	0.91 ± 0.05	1.32 ± 0.16	0.61 ± 0.03	14.8 ± 0.44	1.05 ± 0.13	> 300	–	–	–	–	–
O=c1[nH]c2ccccc2nc1N/N=C/c1ccc(Cl)c(Cl)c1 [Compound 3d, (E)-3-(2-(3,4-dichlorobenzylidene)hydrazinyl)quinoxalin-2(1H)-one]	10.5 ± 1.74	4.5 ± 0.33	3 ± 0.63	13.5 ± 1.02	5.7 ± 0.27	244 to 246	–	–	–	–	–
